Test results taken from article PMC6255697, “The major nectar protein of Brassica rapa is a non-specific lipid transfer protein, BrLTP2.1, with strong antifungal activity” (Journal of Experimental Botany, 2018).

Assays:
BrLTP2.1 [1] = biological target: T1, BrLTP2.1 (Brassica rapa, UniProt A0A8D9LMK4); experiment: TNS displacement fluorescence; type: binding; conditions: 2.5 uM protein and 2.5 uM TNS, ligand 0-10 uM, pH 7.0; competitive with TNS
T1 construct: gene BRAPAZ1V2_A03P14030.2; predicted mature protein, residues 27-98 of 98 (signal peptide removed), amplified from genomic DNA; N-terminal T7-tag and C-terminal His6 kept; pET21a(+) in E. coli SHuffle T7 Express lysY

BrLTP2.1 [2] = biological target: T1, BrLTP2.1; experiment: TNS displacement fluorescence; protein lipid overlay; type: binding; conditions: 2.5 uM protein and 2.5 uM TNS, ligand 0-10 uM, pH 7.0; competitive with TNS

T1 sequence (A0A8D9LMK4 entry or part of it): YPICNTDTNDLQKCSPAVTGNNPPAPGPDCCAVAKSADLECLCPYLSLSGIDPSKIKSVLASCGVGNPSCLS

Structure (SMILES) | TNS displacement fluorescence (BrLTP2.1 [1]) | TNS displacement fluorescence; protein lipid overlay (BrLTP2.1 [2])
CCCCCCCCCCCCCCCC(=O)O [palmitic acid] | Each of the three free fatty acids tested strongly reduced TNS-dependent fluorescence | 
CCCCCCCCCCCCCCCCCC(=O)O [stearic acid] |  | Each of the three free fatty acids tested strongly reduced TNS-dependent fluorescence
